Laboratory results: patent publication US4604380A, “C-23-substituted mycaminosyltylonolide compounds, pharmaceutical compositions and methods of use” (Eli Lilly and Company, priority 1985, dated 1986)
Values after ≈ are worked out from the molar mass of the structure shown. Read-outs that look alike come from different tables or passages of the source.

Key:
Streptococcus pyogenes = test: ED50 vs Streptococcus pyogenes experimental infection in mice (Table VI); format: in vivo; settings: two doses, several values = results from more than one test
Experimental: (§1) Certain formula 1a compounds have also shown in vivo antimicrobial activity against experimental bacterial infections. When two doses of test compound were administered to mice in experimental infections, the activity observed was measured as an ED50 value [effective dose in mg/kg to protect 50% of the test animals: see Warren Wick, et al., J. Bacteriol. 81, 233-235 (1961)].

Staphylococcus aureus = test: ED50 vs. Staphylococcus aureus experimental infection in mice (Table V); format: in vivo; settings: two doses, dose protecting 50% of animals
Experimental: as §1

[1] = test system: Streptococcous pneumoniae; test: ED50 vs. Streptococcous pneumoniae experimental infection in mice (Table VII); format: in vivo; settings: Mus musculus, two doses
Experimental: as §1

[2] = test system: Streptococcus pneumoniae Park I; test: microbe, parasite or virus in culture; format: cell-based
Experimental: (§2) The MIC's s in Table III were determined by standard agar-dilution assays. The MIC's in Table IV were obtained using a conventional broth-dilution microtiter test.

[3] = test system: Staphylococcus epidermidis EPI1; test: MIC, standard agar-dilution assay (Table III); format: cell-based
Experimental: as §2

[4] = test system: Staphylococcus aureus S13E; test: MIC, standard agar-dilution assay (Table III); format: cell-based
Experimental: as §2

[5] = test system: Staphylococcus aureus X1.1; test: MIC, standard agar-dilution assay (Table III); format: cell-based
Experimental: as §2

[6] = test system: Streptococcus Group D 2041; test: MIC, standard agar-dilution assay (Table III); format: cell-based; settings: GROUPD2041
Experimental: as §2

[7] = test system: Staphylococcus aureus V41; test: MIC, standard agar-dilution assay (Table III); format: cell-based; settings: Staphylococcus aureus V41, penicillin-resistant strain
Experimental: as §2

[8] = test system: Streptococcus pyogenes C203; test: MIC, standard agar-dilution assay (Table III); format: cell-based
Experimental: as §2

[9] = test system: Streptococcus Group D X66; test: MIC, standard agar-dilution assay (Table III); format: cell-based
Experimental: as §2

[10] = test system: Haemophilus influenzae 76; test: MIC, standard agar-dilution assay (Table III); format: cell-based; settings: agar dilution; Haemophilus influenzae 76, ampicillin-resistant strain; read-out: MIC
Experimental: as §2

[11] = test system: Staphylococcus aureus X400; test: MIC, standard agar-dilution assay (Table III); format: cell-based; settings: Staphylococcus aureus, X400
Experimental: as §2

[12] = test system: Haemophilus influenzae C.L.; test: MIC, standard agar-dilution assay (Table III); format: cell-based
Experimental: as §2

[13] = test system: Staphylococcus epidermidis 222; test: MIC, standard agar-dilution assay (Table III); format: cell-based; settings: agar dilution; Staphylococcus epidermidis 222; read-out: MIC
Experimental: as §2

[14] = sc, subcutaneous, read-out: ED50 Subcutaneous
[15] = Staphylococcus epidermidis, EPI1
[16] = agar dilution, Haemophilus influenzae C.L., ampicillin-sensitive strain, read-out: MIC

SMILES	ED50 (Streptococcus pyogenes; [14]) [mg/kg]	ED50 (Staphylococcus aureus; [14]) [mg/kg]	ED50 [1, 14] [mg/kg]	MIC [3, 15] [µg/mL]	MIC [4] [µg/mL]	MIC [5] [µg/mL]	MIC [6] [µg/mL]	MIC [7] [µg/mL]	MIC ([8]; Streptococcus pyogenes, C203) [µg/mL]	MIC [9] [µg/mL]	MIC [10] [µg/mL]	MIC [11] [µg/mL]	MIC [13] [µg/mL]	MIC [12, 16] [µg/mL]	further results
CCC1OC(=O)CC(O)C(C)C(OC2OC(C)C(O)C(N(C)C)C2O)C(CC=O)CC(C)C(=O)C=CC(C)=CC1CN1CCC2CCCCC2C1 (centres unmarked) [Compound 33, 23-deoxy-23-(octahydro-1H--isoquinolin-2-yl)-OMT]	> 10	7.56	10	0.5 (≈ 0.695 µM)	0.5 (≈ 0.695 µM)	0.5 (≈ 0.695 µM)	0.5 (≈ 0.695 µM)	0.5 (≈ 0.695 µM)	0.03 (≈ 0.0417 µM)	0.5 (≈ 0.695 µM)	0.25 (≈ 0.348 µM)	0.25 (≈ 0.348 µM)	0.125 (≈ 0.174 µM)	–	MIC ([2]; Streptococcus pneumoniae, read-out: MIC): 0.06 µg/mL (≈ 0.0835 µM); MIC ([12]; Haemophilus influenzae): 0.5 µg/mL (≈ 0.695 µM)
CCC1OC(=O)CC(O)C(C)C(OC2OC(C)C(O)C(N(C)C)C2O)C(CC=O)CC(C)C(=O)C=CC(C)=CC1CN1CCc2ccccc2C1 (centres unmarked) [Compound 29, 23-deoxy-23-(3,4-dihydro-1H--isoquinolin-2-yl)-OMT]	> 10	> 10	> 10	–	0.25 (≈ 0.351 µM)	0.25 (≈ 0.351 µM)	–	0.25 (≈ 0.351 µM)	–	–	1 (≈ 1.4 µM)	0.25 (≈ 0.351 µM)	0.125 (≈ 0.175 µM)	1 (≈ 1.4 µM)	MIC ([2]; Streptococcus pneumoniae): 0.03 µg/mL (≈ 0.0421 µM); MIC ([3]; agar dilution, Staphylococcus epidermidis EPI1, read-out: MIC): 0.125 µg/mL (≈ 0.175 µM); MIC ([6]; agar dilution, Streptococcus Group D 2041, read-out: MIC): 0.25 µg/mL (≈ 0.351 µM); MIC ([8]; agar dilution, Streptococcus pyogenes C203, read-out: MIC): 0.06 µg/mL (≈ 0.0842 µM); MIC ([9]; agar dilution, Streptococcus Group D X66, read-out: MIC): 0.125 µg/mL (≈ 0.175 µM)
CCC1OC(=O)CC(O)C(C)C(OC2OC(C)C(O)C(N(C)C)C2O)C(CC=O)CC(C)C(=O)C=CC(C)=CC1CN1CCC2CCCCC21 (centres unmarked) [Compound 35, 23-deoxy-23-(octahydro-1H--indol-1-yl)-OMT]	1.86	–	–	0.25 (≈ 0.355 µM)	0.25 (≈ 0.355 µM)	0.25 (≈ 0.355 µM)	0.25 (≈ 0.355 µM)	0.25 (≈ 0.355 µM)	0.5 (≈ 0.709 µM)	0.25 (≈ 0.355 µM)	1 (≈ 1.42 µM)	0.25 (≈ 0.355 µM)	0.125 (≈ 0.177 µM)	0.5 (≈ 0.709 µM)	ED50 (Streptococcus pyogenes; po, read-out: ED50 Oral): 87.1 mg/kg; ED50 Subcutaneous (Streptococcus pyogenes; subcutaneous): 2.5 mg/kg × 2; ED50 (Staphylococcus aureus; po, read-out: ED50 Oral): 100 mg/kg; ED50 ([1]; po, read-out: ED50 Oral): 71 mg/kg; MIC ([2]; agar dilution, Streptococcus pneumoniae Park I, read-out: MIC): 1 µg/mL (≈ 1.42 µM)
